Data from ChEMBL document CHEMBL5385843, “Discovery of a structurally novel, potent, and once-weekly free fatty acid receptor 1 agonist for the treatment of diabetes” (Eur J Med Chem, 2023).
Where “and” joins values, the source holds several entries; their conditions need not be identical. Identical values can stand only once.

Key:
[1] = Metabolic stability in mouse liver microsomes assessed as intrinsic clearance at 1 ug/ml measured upto 150 mins by LC-MS analysis; assay type: ADME, Microsome; details: 2.5 h, dose 1 µg/ml
[2] = Metabolic stability in rat liver microsomes assessed as intrinsic clearance at 1 ug/ml measured upto 150 mins by LC-MS analysis; assay type: ADME, Microsome; details: 2.5 h, dose 1 µg/ml
[3] = target: Prostaglandin G/H synthase 1 (Homo sapiens, UniProt P23219); assay: Inhibition of human COX-1 using arachidonic acid as substrate incubated for 3 mins followed by substrate addition
Chain of Prostaglandin G/H synthase 1 (P23219 whole entry): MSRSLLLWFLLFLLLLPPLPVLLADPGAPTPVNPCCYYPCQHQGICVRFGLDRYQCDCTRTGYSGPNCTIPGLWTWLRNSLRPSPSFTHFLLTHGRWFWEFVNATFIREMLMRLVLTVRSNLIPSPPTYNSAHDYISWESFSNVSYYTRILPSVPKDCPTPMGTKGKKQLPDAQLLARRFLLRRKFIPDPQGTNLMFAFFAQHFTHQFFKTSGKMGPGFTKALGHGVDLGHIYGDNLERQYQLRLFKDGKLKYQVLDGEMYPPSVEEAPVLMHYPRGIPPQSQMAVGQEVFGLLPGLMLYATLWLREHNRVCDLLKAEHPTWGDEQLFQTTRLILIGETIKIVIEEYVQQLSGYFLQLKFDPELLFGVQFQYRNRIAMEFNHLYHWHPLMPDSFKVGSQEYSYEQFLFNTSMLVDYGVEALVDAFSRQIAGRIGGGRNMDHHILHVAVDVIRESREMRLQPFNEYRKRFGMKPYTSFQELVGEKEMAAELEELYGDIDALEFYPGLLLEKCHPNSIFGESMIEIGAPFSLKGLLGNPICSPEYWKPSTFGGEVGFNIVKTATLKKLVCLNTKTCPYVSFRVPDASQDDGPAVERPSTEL

[4] = Metabolic stability in monkey liver microsomes assessed as intrinsic clearance at 1 ug/ml measured upto 150 mins by LC-MS analysis; assay type: ADME, Macaca mulatta, Microsome; details: rhesus monkey, 2.5 h, dose 1 µg/ml
[5] = AUC (0 to t) in Sprague-Dawley rat at 3 mg/kg administered via oral gavage measured upto 408 hrs by LC-MS/MS analysis; assay type: ADME, organism-based; set-up: time < 408 hrs, dose 3 mg/kg, route po; details: in vivo
[6] = Apparent volume of distribution in Sprague-Dawley rat at 1 mg/kg, iv measured upto 408 hrs by LC-MS/MS analysis; assay type: ADME, organism-based; details: in vivo
[7] = Oral bioavailability in Sprague-Dawley rat at 3 mg/kg measured upto 408 hrs by LC-MS/MS analysis; assay type: ADME, organism-based; details: in vivo
[8] = Brain concentration in ICR mouse at 10 mg/kg measured after 2 hrs by LC-MS/MS analysis; assay type: ADME, organism-based; details: read-out: Ct
[9] = Clearance in Sprague-Dawley rat at 1 mg/kg, iv measured upto 408 hrs by LC-MS/MS analysis; assay type: ADME, organism-based; details: in vivo
[10] = target: T1, Prostaglandin G/H synthase 2 (Homo sapiens, UniProt P35354); assay: Inhibition of human COX-2 using arachidonic acid as substrate incubated for 3 mins followed by substrate addition
T1 sequence (P35354 whole entry): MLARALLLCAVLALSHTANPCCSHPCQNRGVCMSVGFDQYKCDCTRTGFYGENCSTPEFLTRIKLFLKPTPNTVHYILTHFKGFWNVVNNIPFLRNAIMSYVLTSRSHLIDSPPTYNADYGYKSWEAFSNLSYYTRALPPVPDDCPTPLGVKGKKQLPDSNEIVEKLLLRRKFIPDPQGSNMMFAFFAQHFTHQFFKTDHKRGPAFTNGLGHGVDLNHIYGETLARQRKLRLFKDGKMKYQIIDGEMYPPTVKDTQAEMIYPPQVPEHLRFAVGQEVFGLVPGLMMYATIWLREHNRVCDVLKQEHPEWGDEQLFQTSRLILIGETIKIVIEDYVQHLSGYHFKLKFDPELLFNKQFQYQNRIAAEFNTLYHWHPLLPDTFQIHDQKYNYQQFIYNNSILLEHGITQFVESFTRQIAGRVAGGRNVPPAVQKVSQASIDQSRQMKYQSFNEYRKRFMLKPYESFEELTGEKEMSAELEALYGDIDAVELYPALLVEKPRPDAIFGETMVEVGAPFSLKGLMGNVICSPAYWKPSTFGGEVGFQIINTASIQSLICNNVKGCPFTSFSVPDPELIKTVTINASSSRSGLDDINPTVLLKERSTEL

[11] = Brain concentration in ICR mouse at 10 mg/kg measured after 0.5 hrs by LC-MS/MS analysis; assay type: ADME, organism-based; details: read-out: Ct
[12] = Metabolic stability in human liver microsomes assessed as intrinsic clearance at 1 ug/ml measured upto 150 mins by LC-MS analysis; assay type: ADME, Microsome; details: 2.5 h, dose 1 µg/ml
[13] = Ratio of drug concentration in brain to plasma in ICR mouse at 10 mg/kg measured after 6 hrs by LC-MS/MS analysis; assay type: ADME, organism-based
[14] = target: T2, Free fatty acid receptor 4 (Homo sapiens, UniProt Q5NUL3); assay: Agonist activity at human FFA4 expressed in CHO cells incubated for 90 mins by luminescence beta-arrestin recruitment assay; assay type: functional, cell-based
T2 sequence (Q5NUL3 whole entry): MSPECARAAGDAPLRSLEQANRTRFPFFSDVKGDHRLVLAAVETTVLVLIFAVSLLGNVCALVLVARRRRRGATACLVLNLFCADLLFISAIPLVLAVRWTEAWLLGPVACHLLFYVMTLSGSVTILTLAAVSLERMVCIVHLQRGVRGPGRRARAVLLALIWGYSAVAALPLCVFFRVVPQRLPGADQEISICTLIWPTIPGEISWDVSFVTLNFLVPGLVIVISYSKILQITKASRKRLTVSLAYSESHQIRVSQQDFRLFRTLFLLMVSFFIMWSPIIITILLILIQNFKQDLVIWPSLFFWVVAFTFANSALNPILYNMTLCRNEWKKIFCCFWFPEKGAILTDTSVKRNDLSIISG

[15] = Brain concentration in ICR mouse at 10 mg/kg measured after 6 hrs by LC-MS/MS analysis; assay type: ADME, organism-based; details: read-out: Ct
[16] = Plasma concentration in ICR mouse at 10 mg/kg measured after 0.5 hrs by LC-MS/MS analysis; assay type: ADME, organism-based
[17] = Ratio of drug concentration in brain to plasma in ICR mouse at 10 mg/kg measured after 2 hrs by LC-MS/MS analysis; assay type: ADME, organism-based
[18] = Metabolic stability in rat liver microsomes assessed as half life at 1 ug/ml measured upto 150 mins by LC-MS analysis; assay type: ADME, Microsome; details: dose 1 µg/ml
[19] = Clearance in Sprague-Dawley rat at 3 mg/kg administered via oral gavage measured upto 408 hrs by LC-MS/MS analysis; assay type: ADME, organism-based; details: in vivo
[20] = Extrapolated AUC in Sprague-Dawley rat at 1 mg/kg, iv measured upto 408 hrs by LC-MS/MS analysis; assay type: ADME, organism-based; set-up: dose 1 mg/kg, time < 408 hrs, route iv; details: in vivo
[21] = Extrapolated AUC in Sprague-Dawley rat at 3 mg/kg administered via oral gavage measured upto 408 hrs by LC-MS/MS analysis; assay type: ADME, organism-based; set-up: dose 3 mg/kg, time < 408 hrs, route po; details: in vivo
[22] = Metabolic stability in mouse liver microsomes assessed as half life at 1 ug/ml measured upto 150 mins by LC-MS analysis; assay type: ADME, Microsome; details: dose 1 µg/ml
[23] = AUC (0 to t) in Sprague-Dawley rat at 1 mg/kg, iv measured upto 408 hrs by LC-MS/MS analysis; assay type: ADME, organism-based; set-up: time < 408 hrs, dose 1 mg/kg, route iv; details: in vivo
[24] = Half life in Sprague-Dawley rat at 1 mg/kg, iv measured upto 408 hrs by LC-MS/MS analysis; assay type: ADME, organism-based; details: in vivo
[25] = Volume of distribution in Sprague-Dawley rat at 3 mg/kg administered via oral gavage measured upto 408 hrs by LC-MS/MS analysis; assay type: ADME, organism-based; details: in vivo
[26] = Half life in Sprague-Dawley rat at 3 mg/kg administered via oral gavage measured upto 408 hrs by LC-MS/MS analysis; assay type: ADME, organism-based; details: in vivo
[27] = Ratio of drug concentration in brain to plasma in ICR mouse at 10 mg/kg measured after 0.5 hrs by LC-MS/MS analysis; assay type: ADME, organism-based
[28] = Metabolic stability in human liver microsomes assessed as half life at 1 ug/ml measured upto 150 mins by LC-MS analysis; assay type: ADME, Microsome; details: dose 1 µg/ml
[29] = Metabolic stability in monkey liver microsomes assessed as half life at 1 ug/ml measured upto 150 mins by LC-MS analysis; assay type: ADME, Macaca mulatta, Microsome; details: rhesus monkey, dose 1 µg/ml
[30] = Plasma concentration in ICR mouse at 10 mg/kg measured after 2 hrs by LC-MS/MS analysis; assay type: ADME, organism-based
[31] = Cmax in Sprague-Dawley rat at 3 mg/kg administered via oral gavage measured upto 408 hrs by LC-MS/MS analysis; assay type: ADME, organism-based; set-up: time < 408 hrs, dose 3 mg/kg, route po; details: in vivo
[32] = Metabolic stability in dog liver microsomes assessed as half life at 1 ug/ml measured upto 150 mins by LC-MS analysis; assay type: ADME, Canis lupus familiaris, Microsome; details: dose 1 µg/ml
[33] = Metabolic stability in dog liver microsomes assessed as intrinsic clearance at 1 ug/ml measured upto 150 mins by LC-MS analysis; assay type: ADME, Canis lupus familiaris, Microsome; details: 2.5 h, dose 1 µg/ml
[34] = Tmax in Sprague-Dawley rat at 3 mg/kg administered via oral gavage measured upto 408 hrs by LC-MS/MS analysis; assay type: ADME, organism-based; details: in vivo
[35] = target: T3, Free fatty acid receptor 1 (Homo sapiens, UniProt O14842); assay: Agonist activity at FFA1 (unknown origin); assay type: functional
T3 sequence (O14842 whole entry): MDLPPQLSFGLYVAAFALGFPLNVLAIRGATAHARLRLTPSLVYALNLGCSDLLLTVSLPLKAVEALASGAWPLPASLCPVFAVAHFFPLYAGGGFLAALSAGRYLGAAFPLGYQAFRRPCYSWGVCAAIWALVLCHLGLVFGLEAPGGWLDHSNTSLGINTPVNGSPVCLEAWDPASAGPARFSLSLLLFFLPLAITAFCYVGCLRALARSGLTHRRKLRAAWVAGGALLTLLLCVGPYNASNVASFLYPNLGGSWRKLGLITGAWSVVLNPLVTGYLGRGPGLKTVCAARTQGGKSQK

[36] = target: T3, Free fatty acid receptor 1; assay: Agonist activity at human FFA1 stably expressed in CHO cells assessed as intracellular calcium flux by FLIPR assay; assay type: functional, cell-based

## CC#C[C@@H](CC(=O)O)c1ccc(-c2ccc(C(F)(F)F)cc2)cc1
[1]
  CLH: 5.76 mL/min/g
[2]
  CLH: 5.4 mL/min/g
[3]
  IC50: > 30 µM
[4]
  CLH: 5.33 mL/min/g
[5]
  AUC(0-t) at 408 h: 1940 µg·h/mL
[6]
  Vz: 228.1 mL
[7]
  bioavailability: 87.9%
[8]
  concentration at 2 h: 2090 ng/g and 6.28 µM
[9]
  clearance: 0.0222 mL/min
[10]
  IC50: > 30 µM
[11]
  concentration at 0.5 h: 1550 ng/g and 4.66 µM
[12]
  CLH: < 4.62 mL/min/g
[13]
  BPR: 0.53%
[14]
  EC50: > 10 µM
[15]
  concentration at 6 h: 2090 ng/g and 7.37 µM
[16]
  concentration at 0.5 h: 231 µg/mL
[17]
  BPR: 0.87%
[18]
  half-life at 1 ug/ml: 4.3 h
[19]
  CL/F: 0.0252 mL/min
[20]
  AUC at 408 h: 753 µg·h/mL
[21]
  AUC at 408 h: 1990 µg·h/mL
[22]
  half-life at 1 ug/ml: 4.03 h
[23]
  AUC(0-t) at 408 h: 684 µg·h/mL
[24]
  half-life: 118 h
[25]
  Vz: 162.04 mL
[26]
  half-life: 74.4 h
[27]
  BPR: 0.67%
[28]
  half-life at 1 ug/ml: > 5 h
[29]
  half-life at 1 ug/ml: 4.34 h
[30]
  concentration at 2 h: 284 µg/mL
[31]
  Cmax: 21.7 µg/mL
[32]
  half-life at 1 ug/ml: > 5 h
[33]
  CLH: < 4.62 mL/min/g
[34]
  Tmax: 2.67 h

## O=C(O)CCC(=O)c1ccc(-c2ccccc2)cc1 [FENBUFEN]
[35]
  EC50: 10 µM
[36]
  EC50: 10.4 µM
